# Entries after “also recorded” stand apart in the source; their conditions may differ. No end group written: not given here.
# Experiments:
# [1] = tested on: Hgsnat^P304L MPS IIIC mice; test: Y-Maze test; format: in vivo, mouse; conditions: chronic daily intranasal 50 μg/kg BW from 3 weeks
# Protocol: The spontaneous alternation behavior, spatial working memory and exploratory activity of mice were evaluated using a white Y-maze as follows. The maze consisted of three identical white Plexiglas arms (40×10×20 cm, 120° apart) under dim lighting conditions. Each mouse was placed at the end of one arm, facing the center, and allowed to explore the maze for 8 min. All experiments were performed at the same time of the day and by the same investigator to avoid circadian and handling bias. Sessions were video-recorded and arm entries were scored by a trained observer, unaware of the mouse genotype or treatment. Successful alternation was defined as consecutive entries into a new arm before returning to the two previously visited arms.
# Alternation was calculated as: [number of alternations/total number of arm entries−2]×100.
# Starting from 3 weeks of age, WT C57B16 and homozygous Hgsnat^P304L male and female mice were randomly divided in treatment and control groups (6-13 mice/sex/genotype/treatment; see Table I). The control group was daily administered with saline (5 μL to each nostril), while for the treatment group, saline was supplemented with 125 µg of AVP6/mL, which would result in a dose of approximately 50 μg/kg BW/day. […] When such signs were detected, the mice were studied by ERG and sacrificed within 1-2 days. […]
# [2] = tested on: primary hippocampal neurons of Hgsnat^P304L mice; test: Synaptic protein markers and BDNF in primary hippocampal neuronal cultures (immunocytochemistry); format: cell-based, mouse; conditions: 10 μM in culture media
# Protocol: Model and Developmental time points: Primary hippocampal neuronal cultures established from E16 embryos of […] mice.
# Method: The hippocampal neurons were cultured until DIV (Day In Vitro) 21 and 50% of media was changed every 3 days. AVP6 at a final concentration of 10 μM was added to the media when plating and during every media change. At DIV21 neurons were fixed and analysed by immunohistochemistry using markers of dendrites (MAP), axons (neurofilament protein, NF-H), and synaptic transmission (PSD95 and BDNF). Synaptic spine architecture and additional protein synaptic markers (Vglut/PSD95 and VAMP) will be studied.
# Primary hippocampal neurons were cultured from the brains of embryo at gestational day 16 (E16). The hippocampi were isolated and treated with 2.5% trypsin solution (Sigma-Aldrich, T4674) for 15 min at 37° C. The cells were washed 3 times with Hank's Balanced Salt Solution (HBSS, Gibco, 14025-092) and mechanically dissociated by pipetting, using glass Pasteur pipettes with 3 different opening sizes (3, 2 and 1 mm). Then, they were counted with the viability dye trypan blue (ThermoFisher Scientific, 15250061), using a hemocytometer, and resuspended in Neurohasal media (Gibco, 21103-049) containing L-glutamine, B27, N2, penicillin and streptomycin. […]
# Cultured mouse neurons at day in vitro (DIV) 21 or iPSC-derived neurons at D1V21 and DIV28 were fixed in 4% paraformaldehyde and 4% sucrose solution in PBS, pH 7.4, for 20 min. […] Coverslips were washed 3 times again in PBS and mounted on slides using ProLong Gold mounting medium, containing 4′,6-dianiidino-2-phenylindole (DAPI; Invitrogen, Cat #P36935), and analyzed by a Leica SP8-DSL or Leica TCS SPE confocal microscopes (×63 glycerol immersion objectives, N.A. 1.4). Images were processed with Leica Application Suite X (LAS-X) software or Photoshop 2021 (Adobe) and quantified using Fiji-ImageJ 1.50i software (National Institutes of Health, Bethesda, MD, USA). […] Soma or axon areas were defined by TUBB3, NEUN, or NF-M staining and, within this area, the appropriate markers were measured establishing a threshold. […]
# [3] = DIV21, Hgsnat^P311L (P304L) neurons
substance,measurement,setting,value
"AVP6: N-terminally acetylated Semax, a nootropic peptide having the amino acid sequence of MEHFPGP (SEQ ID NO:1) (Ac-MEHFPGP)","spatial memory (alternation between arms), Y-Maze",[1]; Hgsnat^P304L mice at 4 months,"a significant difference between saline-treated and peptide-treated mice was observed only, when we pooled the data for both sexes together; also recorded: rescues deficits in spatial and short-term memory; also recorded: show the rescue of all above deficits"
same,"spatial memory (percent of alternation between arms), Y-Maze",[1]; Hgsnat^P304L mice at 6 months,demonstrated alternation similar to that of the WT mice; also recorded: partially rescues deficits in spatial and short-term memory; also recorded: show rescue of all above deficits
same,Synapsin 1-positive puncta,[2]; [3],increase in Synapsin 1-positive puncta; also recorded: rescues deficit of both proteins
same,number of BDNF-positive punctae,[2]; [3],increase in the number of BDNF-positive punctae; also recorded: rescues deficit of both proteins
same,"levels of VGLUT1+, PSD-95+, SYN1+ and BDNF+ puncta",[2]; Hgsnat^P304L neurons,rescues reduced levels of synaptic markers; also recorded: significantly increased

# Source: patent publication US20240043473A1, “NOOTROPIC PEPTIDES FOR TREATING LYSOSOMAL STORAGE DISEASES” (Phoenix Nest Inc., priority 2021, published 2024)
